Test results from patent EP4656642A1, “ESTROGEN RECEPTOR PROTEOLYSIS TARGETING CHIMERA COMPOUND AND USE THEREOF” (GAN & LEE PHARM CO., LTD, priority 2023, dated 2024).

Assays:
Format in all cases: cell-based
MCF-7 cells = experiment: Inhibition of cell proliferation of MCF-7 cells (CCK-8, 9 days); details: treated for 9 days, CCK-8 kit (Table 6)
Excerpt: Test Example 4 Inhibitory effect of the PROTAC compounds disclosed in the present disclosure on cell proliferation of MCF-7 cells
The complete medium required for MCF-7 cells (source ATCC) was DMEM (gibco, Product number :11995-065) basal medium containing 10% fetal bovine serum. MCF-7 cells were inoculated in 96-well plates at a density of 800 cells/well, and different concentrations of the PROTAC compounds 1-55 provided in the embodiments of the present disclosure and a positive control sample ARV-471 (source: Innochem) were prepared to treat cells, and cells were treated at 37°C in a cell culture incubator with 5% CO2 for 9 days. Cell viability was detected using a CCK -8 kit (Beyotime , Product number: C0040) according to the manufacturer's instruction. […] Table 5 IC50 values for inhibition of the proliferation of MCF-7 cells by the PROTAC compounds of the present disclosure and positive control sample

ERα [1] = target: T1, ERα (Homo sapiens, UniProt P03372); experiment: Degradation of ERα in MCF-7 cells (immunoblotting, 4 h)
T1 sequence (P03372 1-595): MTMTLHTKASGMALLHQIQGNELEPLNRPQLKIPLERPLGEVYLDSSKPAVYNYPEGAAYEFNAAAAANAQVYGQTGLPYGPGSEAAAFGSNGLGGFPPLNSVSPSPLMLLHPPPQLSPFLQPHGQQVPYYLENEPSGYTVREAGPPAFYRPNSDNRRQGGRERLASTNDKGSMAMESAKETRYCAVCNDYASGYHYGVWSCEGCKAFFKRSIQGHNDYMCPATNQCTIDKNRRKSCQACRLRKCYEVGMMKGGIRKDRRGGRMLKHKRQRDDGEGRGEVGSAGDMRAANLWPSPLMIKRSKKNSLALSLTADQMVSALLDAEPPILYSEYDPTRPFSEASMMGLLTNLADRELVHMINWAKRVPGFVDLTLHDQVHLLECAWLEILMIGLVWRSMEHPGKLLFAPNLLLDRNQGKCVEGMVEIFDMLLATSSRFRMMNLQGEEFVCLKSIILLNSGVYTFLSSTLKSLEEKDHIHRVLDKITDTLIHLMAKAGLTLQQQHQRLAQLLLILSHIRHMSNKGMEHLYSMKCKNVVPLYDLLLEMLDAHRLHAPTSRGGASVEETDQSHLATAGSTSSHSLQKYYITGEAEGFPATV
Description: MCF-7 cells were inoculated into 6-well plates at a density of 3×10^5 cells/well and cultured at 37°C, 5% CO2 for 24h. After the cells were attached to the wall, 1µL of the compound solution in dimethyl sulfoxide (final concentration 0.15-1000nM) was added and continued to be cultured in incubator at 37°C with 5% CO2 for 4 h. After 4 h, the culture medium was discarded, and each well was washed once with pre-cooled 1×DPBS, and the cells were lysed with a mixture of 50 µL of RIPA lysis buffer (P0013B, Beyotime) and 1× protease inhibitor (P1005, Beyotime), and then centrifuged at 14,000 g for 30 min at 4°C after resting on ice for 20 min, and the supernatant was carefully collected to detect the protein level of ERα by protein immunoblotting (Immunoblotting).
Protein immunoblotting: The total protein concentration in the collected cell lysate supernatant was determined by BCA Protein Concentration Assay Kit (Enhanced) (P0009, Beyotime). According to the total protein concentration detected by BCA, the protein was adjusted to 1 µg/µL with RIPA lysis buffer and 5× SDS-PAGE protein loading buffer (MB01015, Genscript), and the protein was denatured by water bath at 95°C for 5 min, and then centrifuged after denaturation to enrich the condensate on the wall of the centrifuge tubes as a loading sample. […] At the end of electrophoresis, the proteins in the SDS-PAGE gels were transferred to a PVDF membrane at a constant voltage of 100 V for 60 min. After that, the PVDF membrane corresponding to ERα protein and internal reference protein was cut out and incubated in 1×QµickBlock blocking solution (P0252, Beyotime) for 30 min at room temperature on a shaker. […] Protein profiles were analyzed by Image Studio Lite analysis software for grayscale values. Grayscale correction values were calculated for each sample using the Formula: corrected grayscale value = grayscale value of the target protein /corresponding grayscale value of the internal reference. The degradation rate for the compounds was then calculated by comparing the corrected grayscale values of the compound group to the control group. Table 7 Degradation rate (%) of ERα by the PROTAC compounds of the present disclosure and positive control sample in MCF-7 cells

ERα [2] = target: T1, ERα; experiment: Degradation of ERα in T-47D cells (immunoblotting, 4 h); set-up: host or cells: T-47D
Description: T-47D cells were inoculated into 6-well plates at a density of 3×10^5 cells/well and cultured at 37°C, 5% CO2 for 24 h. After the cells were attached to the wall, 1µL of the compound solution in dimethyl sulfoxide (final concentration 0.15-1000 nM) was added and continued to be cultured in the incubator with 5% CO2 at 37°C for 4 h. After 4 h, the culture medium was discarded, and each well was washed once with pre-cooled 1×DPBS, and the cells were lysed with a mixture of 50 µL of RIPA lysis buffer (P0013B, Beyotime) and 1× protease inhibitor (P1005, Beyotime), and then centrifuged at 14,000 g for 30 min at 4°C after resting on ice for 20 min, and the supernatant was carefully collected to detect the protein level of ERα by protein immunoblotting (Immunoblotting).

| Compound | IC50 (MCF-7 cells) [µM] | Degradation rate (%) of ERα in MCF-7 cells (ERα [1]; 1nM compound) [%] | Degradation rate (%) of ERα in MCF-7 cells (ERα [1]; 10nM compound) [%] | Degradation rate (%) of ERα in T-47D cells (ERα [2]; 1nM compound) [%] | Degradation rate (%) of ERα in T-47D cells (ERα [2]; 10nM compound) [%] |
| --- | --- | --- | --- | --- | --- |
| O=C1CCC(N2Cc3cc4c(cc3C2=O)OC2(CC4)CN(C(=O)CN3CCC4(CC3)CCN(c3ccc([C@@H]5c6ccc(O)cc6CC[C@@H]5c5ccccc5)cc3)CC4)C2)C(=O)N1 (stereo partly shown) [A70] | 0.0419 | 18 | 71 | 40 | 75 |
| O=C1CCC(N2Cc3c(ccc4c3OCC43CCN(CCN4CCC5(CC4)CCN(c4ccc([C@@H]6c7ccc(O)cc7CC[C@@H]6c6ccccc6)cc4)CC5)CC3)C2=O)C(=O)N1 (stereo partly shown) [A71] | 0.0145 | 32 | 73 | 52 | 86 |
| O=C1CCC(N2Cc3c(ccc4c3OCC43CCN(CC(=O)N4CCC5(CC4)CCN(c4ccc([C@@H]6c7ccc(O)cc7CC[C@@H]6c6ccccc6)cc4)C5)CC3)C2=O)C(=O)N1 (stereo partly shown) [A72] | 6.84 | 33 | 64 | 39 | 51 |
| O=C1CCC(N2Cc3c(ccc4c3OCC43CCN(CC(=O)N4CCC5(CCN(c6ccc([C@@H]7c8ccc(O)cc8CC[C@@H]7c7ccccc7)cc6)CC5)C4)CC3)C2=O)C(=O)N1 (stereo partly shown) [A73] | 4.17 | 26 | 72 | 55 | 73 |
| O=C1CCC(N2Cc3c(ccc4c3OCC43CCN(C(=O)CN4CCC5(CC4)CCN(c4ccc([C@@H]6c7ccc(O)cc7CC[C@@H]6c6ccccc6)cc4)C5)CC3)C2=O)C(=O)N1 (stereo partly shown) [A75] | 0.00771 | 16 | 14 | 53 | 76 |
| O=C1CCC(N2Cc3cc4c(cc3C2=O)CCC2(CN(C(=O)CN3CCC5(CCN(c6ccc([C@@H]7c8ccc(O)cc8CC[C@@H]7c7ccccc7)cc6)CC5)C3)C2)O4)C(=O)N1 (stereo partly shown) [A76] | 19.3 | -6 | 12 | 40 | 68 |
| O=C1CCC(N2Cc3cc4c(cc3C2=O)OC2(CC4)CN(C(=O)CN3CCC4(CCN(c5ccc([C@@H]6c7ccc(O)cc7CC[C@@H]6c6ccccc6)cc5)CC4)C3)C2)C(=O)N1 (stereo partly shown) [A77] | 52.1 | 29 | 61 | 54 | 78 |
| O=C1CCC(N2Cc3c(ccc4c3OCC43CCN(C4CCN(C(=O)C5CCN(c6ccc([C@@H]7c8ccc(O)cc8CC[C@@H]7c7ccccc7)cc6)CC5)CC4)CC3)C2=O)C(=O)N1 (stereo partly shown) [A78] | 0.00335 | 64 | 78 | 79 | 89 |
| O=C1CCC(N2Cc3c(ccc4c3OCC43CCN(CC(=O)N4CCC(C#Cc5ccc([C@@H]6c7ccc(O)cc7CC[C@@H]6c6ccccc6)cc5)CC4)CC3)C2=O)C(=O)N1 (stereo partly shown) [A79] | 0.00259 | 45 | 47 | 40 | 60 |
| O=C1CCC(N2Cc3c(ccc4c3OCC43CCN(C4CC5(CCC6(CC5)CN(c5ccc([C@@H]7c8ccc(O)cc8CC[C@@H]7c7ccccc7)cc5)C6)C4)CC3)C2=O)C(=O)N1 (stereo partly shown) [A81] | 0.0223 | -39 | 20 | -33 | 45 |
| O=C1CCC(N2Cc3cc4c(cc3C2=O)OC2(CC4)CN(C3CCN(C(=O)C4CCN(c5ccc([C@@H]6c7ccc(O)cc7CC[C@@H]6c6ccccc6)cc5)CC4)CC3)C2)C(=O)N1 (stereo partly shown) [A82] | 0.448 | 16 | 51 | 51 | 78 |
| O=C1CCC(N2Cc3c(ccc4c3OCC43CCN(C(=O)C4CCC5(CC4)CN(c4ccc([C@@H]6c7ccc(O)cc7CC[C@@H]6c6ccccc6)cc4)C5)CC3)C2=O)C(=O)N1 (stereo partly shown) [A83] | 0.039 | 23 | 46 | 40 | 62 |
| O=C1CCC(N2Cc3c(ccc4c3OCC43CCN(C4CCN(C(=O)C5CCC6(CC5)CN(c5ccc([C@@H]7c8ccc(O)cc8CC[C@@H]7c7ccccc7)cc5)C6)CC4)CC3)C2=O)C(=O)N1 (stereo partly shown) [A84] | 0.00526 | 63 | 74 | 56 | 77 |
| C[C@@H]1Cc2c([nH]c3ccccc23)[C@@H](c2c(F)cc(N3CCC4(CCN(C(=O)CN5CCC6(CC5)COc5c6ccc6c5CN(C5CCC(=O)NC5=O)C6=O)CC4)CC3)cc2F)N1CC(F)F (stereo partly shown) [A118] | 0.0163 | -7 | 55 | 38 | 79 |
| C[C@@H]1Cc2c([nH]c3ccccc23)[C@@H](c2c(F)cc(N3CCC4(CCN(C(=O)CN5CCC6(CC5)COc5c6ccc6c5CN(C5CCC(=O)NC5=O)C6=O)C4)CC3)cc2F)N1CC(F)F (stereo partly shown) [A119] | 0.0194 | 12 | 66 | 51 | 73 |
| O=C1CCC(N2Cc3c(ccc4c3OCC43CCN(C4CCN(S(=O)(=O)C5CCN(c6ccc([C@@H]7c8ccc(O)cc8CC[C@@H]7c7ccccc7)cc6)CC5)CC4)CC3)C2=O)C(=O)N1 (stereo partly shown) [A122] | 14.8 | 40 | 51 | 56 | 65 |
| O=C1CCC(N2Cc3c(ccc4c3OCC43CCN(C(=O)CC4CCN(c5ccc([C@@H]6c7ccc(O)cc7CC[C@@H]6c6ccccc6)cc5)CC4)CC3)C2=O)C(=O)N1 (stereo partly shown) [A124] | 56.4 | 18 | 20 | 52 | 52 |
